Experimental data as given in publication PMC12091851, “Replacing a Cereblon Ligand by a DDB1 and CUL4 Associated Factor 11 (DCAF11) Recruiter Converts a Selective Histone Deacetylase 6 PROTAC into a Pan‐Degrader” (Chemmedchem, 2025).

How the values were obtained:
HDAC = conditions: cited from earlier work
[1] = Aqueous stability assay in DPBS buffer (HPLC); type: physicochemical; conditions: DPBS pH 7.4, 10% DMSO, room temperature, 72 hours
Description: and A6. Compounds were diluted in DPBS buffer (pH = 7.4; final DMSO concentration: 10%) and the remaining compound content was analyzed by HPLC. The peak area at 0 h was used for normalization.
Mean ± standard deviation of n = 2 replicates.
Figure S4. Analysis of time dependent degradation by 1j of HDAC1 (A) and HDAC6 (B) by Simple Western™ immunoassay analysis of MM.1S cell lysates. MM.1S cells were treated with 1j (10 µM) or vehicle (DMSO) for the indicated time period. Quantification of protein levels presented as mean ± standard deviation of n = 3 biological replicates. Si gnificance compared to vehicle: * = p≤0.05 , […]
2.5. Aqueous Stability Assay
For stability testing in aqueous solution, a 10-fold concentrated DMSO solution of the respective compounds was diluted in DPBS to generate a 10 µM concentration (final DMSO content of 10%).
Samples of the aqueous solutions were taken after 0, 24, 48, and 72 h at room temperature and the amounts of the parental compound and potential fragments were monitored by HPLC gradient A (see 3.1 General Information). The peak area of the 0 h sample was used for normalization. All compounds were tested in duplicates and GraphPad Prim was used for evaluation and data visualization.
The cell lysis was performed as descripted in 3.2. Simple Western Immunoassay. […]
Afterwards, proteins were transferred with the Trans -Blot Turbo Transfer System (Catalog# 1704150, Bio-Rad) to Immobilon-FL PVDF membranes (Catalog# IPFL00005, Mill ipore Merck, Burlington, MA, USA) at 1.0 A for 30 min and treated with 5% milk-powder solution for 1 h at room temperature under slight agitation. […] The ChemiDoc XRS+ System (Catalog# 1708265 , Bio-Rad) was used for detection and Image Lab Software 6.1 (Bio-Rad) for quantification. […]
In vitro inhibitory activities against HDAC1, 2 , and 6 were measured using a previously published protocol.[3] In vitro inhibitory activities against HDAC4 were measured using a previously published protocol with slight modifications. […]

MM.1S cells = experiment: Cell cycle analysis by PI staining and flow cytometry; type: cell-based, human; conditions: 10 μM, 48 h
Description: GraphPad Prism (GraphPad Software). […]
Biotech), resuspended in 1 mL EtOH/D PBS (7/3 v/v), and fixed for 30 min at 4 °C. The samples were rehydrated with DPBS and treated with 5 µg /mL RNAse ( Catalog# EN0531 , ThermoFisher Scientific Inc.) for 15 min at room temperature. The staining was performed with 3 µM propidium iodide (in DPBS) for 15 min at room temperature and analyzed by flow cytometry ( Guava easyCyteTM, Luminex, […]
Lakes, NJ, USA), using the Watson Pragmatic algorithm.[6] GraphPad Prism (GraphPad Software) was used for normalization, statistical analysis, and bar graph creation. Significance testing was performed with a one-way analysis of variance (ANOVA). Dunnett’s post-hoc test was employed to obtain […]
Final DMSO concentration was 0.1%.
Staining was performed with
Fluorescence was measured by flow cytometry (Guava® easyCyteTM, Luminex, Austin, Texas). GraphPad Prism (GraphPad Software) was used for normalization, statistical analysis, and bar graph creation. Significance testing was performed with a one-way analysis of variance (ANOVA).
Subsequently, cells were harvested and […]
After 30 minutes of incubation at […]
Dunnett’s post-hoc test was employed

MDA-MB-231 cells = experiment: Clonogenic growth assay; type: cell-based, human; conditions: 10 μM for 48 h, nine days of growth
Description: Figure 9 Clonogenic growth assay of DCAF11‐recruiting PROTACs. MDA‐MB‐231 cells were treated with 10 μM of the respective compound or vehicle (DMSO) for 48 hours. (A) Representative images of crystal violet stained colonies after nine days of growth. (B) Quantification of counted colonies, presented as mean ± standard deviation of three biological replicates, each performed in triplicates. Significance of quantification compared to vehicle: ns=p≥0.05; **=p≤0.01 and ***=p≤0.001. […]
Subsequently, cells were harvested and
plated in 6-well plates at a density of 750 cells per well in triplicates. The cell culture medium was
changed after five days. Nine days after plating, the colonies were carefully washed with 500 µL DPBS
and stained with 500 µL crystal violet solution (0.5% in methanol). After 30 minutes of incubation at
room temperature, the wells were gently rinsed with deionized water. After counting the formed
colonies, GraphPad Prism (GraphPad Software) was used for bar graph creation. Significance testing
was performed with a one-way analysis of variance (ANOVA). Dunnett’s post-hoc test was employed
to obtain significance levels of each mean compared to a reference mean value.

SMILES	degraded HDAC isoforms (HDAC)	decomposition / reduction in content in DPBS buffer [1]	effect on cell cycle phases (MM.1S cells)	reduction of colonies (clonogenic growth) (MDA-MB-231 cells)
Cc1ncsc1-c1ccc([C@@H](C)NC(=O)[C@H]2C[C@H](O)CN2C(=O)[C@H](NC(=O)CCOCCOCCN(CCc2c[nH]c3ccccc23)Cc2ccc(/C=C/C(=O)NO)cc2)C(C)(C)C)cc1 [V]	degraded HDAC3 and 8			
O=C(CCCCCCC(=O)Nc1ccccc1)NO [Vorinostat, vorinostat, reference compound]		remained intact	stronger effects on the different phases of the cell cycle	less pronounced and not significant
O=C(CCCCCCC(=O)N/N=C/c1ccc(OCCOCCOCCn2cc(CNc3cccc4c3C(=O)N(C3CCC(=O)NC3=O)C4=O)nn2)cc1)NO (centres unmarked) [I]	only HDAC6 was degraded			
